The nature of data set [1]: Excipients compatibility study with tazarotene. The data set is classed as physicochemical. On the procedure: Excipient compatibility study for tazarotene was carried out with various pharmaceutically acceptable excipients. The tazarotene was tested in a set of compatibility screening studies with the excipients in closed vials containing tazarotene. The excipients physical mixture were incubated in ovens with and without moisture at 60° C. or 40° C./75% RH for 4 weeks.

A short description of data set [2]: Multiple dose bioavailability study versus TAZORAC 0.1% cream. The data set is classed as in vivo, healthy male subjects. The settings on record: after topical application of test or reference product. On the procedure:
The study was a single-center, randomized, multiple dose, laboratory-blinded, open-label, 3-arm, parallel design in healthy male subjects. The following investigational products were to be administered: 1) Test product: composition of example 1 (tazarotene 0.1%) and 2) reference: TAZORAC cream 0.1%. Following were treatment arms: 1) Treatment 1: Test product applied twice daily, in the morning and evening, 12 hours apart; 2) Treatment 2: Test product applied once daily, in the morning; and 3) Treatment 3: Reference product applied once daily, in the morning. For each study arm (n=16), approximately 5 g of the Test or Reference product was to be applied to the subjects face, neck, shoulders, upper chest and upper back (total approximately equivalent to 15% body surface area (BSA)) over 14 consecutive days (Days 1 to 14). Blood sample were collected time to time as per the schedule of the study.

With `CCOC(=O)c1ccc(C#Cc2ccc3c(c2)C(C)(C)CCS3)nc1` [tazarotene, Tazarotene], the excipient compatibility result is on record as “incompatible” in data set [1] (with benzyl alcohol, lactic acid, polysorbate 80); “compatible” in data set [1] (with excipients of examples 1, 2, 3 (carbomer type A and B, cocobetaine, sodium lauryl sarcosinate, stearyl alcohol, cetyl alcohol, glycerine, vitamin E TPGS, gluconolactone, BHT, parabens)). In addition, in data set [2], the “concentrations of the parent compound detected in plasma samples” value was “Very low concentrations”.

For the origin of these results see patent publication US9931328B2, “Topical retinoid compositions” (DR. REDDY'S LABORATORIES, LTD., priority 2015, dated 2018).
